The target in this assay is EGFR (human) (UniProt P00533).

Molecules are shown by their SMILES.

As usually defined, the IC50 is the point on the concentration scale where inhibition reaches its midpoint.

Sequence of EGFR (human) (P00533 whole entry, looked up): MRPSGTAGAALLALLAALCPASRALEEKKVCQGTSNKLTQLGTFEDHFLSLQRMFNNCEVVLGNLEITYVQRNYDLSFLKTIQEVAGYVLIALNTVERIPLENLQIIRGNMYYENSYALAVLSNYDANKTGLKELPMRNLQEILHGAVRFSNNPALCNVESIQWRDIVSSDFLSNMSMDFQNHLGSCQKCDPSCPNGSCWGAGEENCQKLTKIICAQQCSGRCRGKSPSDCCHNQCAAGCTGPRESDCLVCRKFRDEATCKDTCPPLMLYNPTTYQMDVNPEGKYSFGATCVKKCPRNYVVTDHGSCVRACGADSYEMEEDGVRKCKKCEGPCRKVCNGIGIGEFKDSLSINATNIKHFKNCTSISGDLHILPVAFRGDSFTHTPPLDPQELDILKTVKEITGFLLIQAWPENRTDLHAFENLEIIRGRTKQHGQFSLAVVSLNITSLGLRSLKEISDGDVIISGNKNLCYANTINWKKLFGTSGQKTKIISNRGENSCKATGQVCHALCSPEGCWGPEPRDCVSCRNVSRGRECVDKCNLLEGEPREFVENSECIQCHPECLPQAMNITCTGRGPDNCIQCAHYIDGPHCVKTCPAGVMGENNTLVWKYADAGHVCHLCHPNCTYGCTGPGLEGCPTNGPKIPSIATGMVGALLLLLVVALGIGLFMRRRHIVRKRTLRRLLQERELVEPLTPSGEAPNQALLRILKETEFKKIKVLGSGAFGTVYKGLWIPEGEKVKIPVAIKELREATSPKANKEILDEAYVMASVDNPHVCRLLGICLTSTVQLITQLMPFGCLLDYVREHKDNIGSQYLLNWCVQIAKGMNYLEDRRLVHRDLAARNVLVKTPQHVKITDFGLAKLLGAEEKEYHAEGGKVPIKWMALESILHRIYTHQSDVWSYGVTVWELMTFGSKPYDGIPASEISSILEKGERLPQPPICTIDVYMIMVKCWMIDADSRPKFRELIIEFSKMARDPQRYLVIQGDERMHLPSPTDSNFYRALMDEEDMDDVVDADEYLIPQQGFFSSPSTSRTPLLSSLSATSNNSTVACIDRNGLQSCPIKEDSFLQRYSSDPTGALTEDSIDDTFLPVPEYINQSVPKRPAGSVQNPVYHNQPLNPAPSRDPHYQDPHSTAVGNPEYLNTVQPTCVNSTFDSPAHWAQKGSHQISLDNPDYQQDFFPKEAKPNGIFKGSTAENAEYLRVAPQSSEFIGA

The molecule `CN(C/C=C/C(=O)N1CC[C@@H](n2nc(-c3ccc(C(=O)Nc4cc(C(F)(F)F)ccn4)cc3)c3c(N)ncnc32)C1)C1CC1` yielded an IC50 of 100 to 1000 nM.

As for `CCCc1cnc(NC(=O)c2ccc(-c3nn([C@@H]4CCN(C(=O)/C=C/CN(C)C5CC5)C4)c4ncnc(N)c34)cc2)s1`, the IC50 was in the range of 100 to 1000 nM.

Turning to `CCCc1ccnc(NC(=O)c2ccc(-c3nn([C@@H]4CCN(C(=O)/C=C/CN(C)C5CC5)C4)c4ncnc(N)c34)cc2)c1`, the IC50 is 100 to 1000 nM.

Molecule `CC(C)c1cnc(NC(=O)c2ccc(-c3nn([C@@H]4CCN(C(=O)/C=C/CN(C)C5CC5)C4)c4ncnc(N)c34)cc2)s1` yielded an IC50 of 100 to 1000 nM.

For the molecule `CN(C/C=C/C(=O)N[C@H]1CC[C@H](n2nc(-c3ccc(C(=O)Nc4cc(C(F)(F)F)ccn4)cc3)c3c(N)ncnc32)CC1)C1CC1`, the half-maximal inhibitory concentration (IC50) lay within 100 to 1000 nM.

Molecule `CN(C/C=C/C(=O)N1CC[C@@H](n2nc(-c3ccc(C(=O)Nc4ncco4)cc3)c3c(N)ncnc32)C1)C1CC1` returned a 50% inhibitory concentration (IC50) greater than 10 nM.

On to `CN(C/C=C/C(=O)N1CC[C@@H](n2nc(-c3ccc(C(=O)Nc4ncc(C#N)s4)cc3)c3c(N)ncnc32)C1)C1CC1`, for which the IC50 lay in the range of 1 to 100 nM.

For the molecule `CN(C/C=C/C(=O)N1CC[C@@H](n2nc(-c3ccc(C(=O)Nc4ncc(C(F)(F)F)s4)cc3)c3c(N)ncnc32)C1)C1CC1`, the IC50 fell in the range of 100 to 1000 nM.

Take `CNC/C=C/C(=O)N1CC[C@@H](n2nc(-c3ccc(C(=O)Nc4cc(C(F)(F)F)ccn4)cc3)c3c(N)ncnc32)C1`: the half-inhibitory concentration (IC50) fell in the range of 1 to 100 nM.

Molecule `CN(C/C=C/C(=O)N1CC[C@@H](n2nc(-c3ccc(C(=O)Nc4ncc(C5CC5)s4)cc3)c3c(N)ncnc32)C1)C1CC1` showed an IC50 of less than 1 nM.

`CCc1cnc(NC(=O)c2ccc(-c3nn([C@@H]4CCN(C(=O)/C=C/CN(C)C5CC5)C4)c4ncnc(N)c34)cc2)s1` came in with an IC50 of 100 to 1000 nM.

In turn, `CN(C/C=C/C(=O)N1CC[C@@H](n2nc(-c3ccc(C(=O)Nc4nccs4)cc3)c3c(N)ncnc32)C1)C1CC1` displayed an IC50 of less than 1 nM.

`CN(C)C/C=C/C(=O)N1CC[C@@H](n2nc(-c3ccc(C(=O)Nc4cc(C(F)(F)F)ccn4)cc3)c3c(N)ncnc32)C1` returned a concentration for half-maximal inhibition (IC50) of 100 to 1000 nM.

As for `Nc1ncnc2c1c(-c1ccc(C(=O)Nc3cc(C(F)(F)F)ccn3)cc1)nn2[C@@H]1CCN(C(=O)/C=C/CNC2CC2)C1`, the concentration for half-maximal inhibition (IC50) lay in the range of 1 to 100 nM.

On to `Cc1ccnc(NC(=O)c2ccc(-c3nn([C@H]4CC[C@H](NC(=O)/C=C/CN(C)C5CC5)CC4)c4ncnc(N)c34)cc2)c1`, for which the half-inhibitory concentration (IC50) is 100 to 1000 nM.

In turn, `CN(C/C=C/C(=O)N1CC[C@@H](n2nc(-c3ccc(C(=O)Nc4ccccn4)cc3)c3c(N)ncnc32)C1)C1CC1` gave an IC50 of 100 to 1000 nM.

`CN(C)C/C=C/C(=O)N1CC[C@@H](n2nc(-c3ccc(C(=O)Nc4cc(C#N)ccn4)cc3)c3c(N)ncnc32)C1` displayed an IC50 of 100 to 1000 nM.

The molecule `CC#CC(=O)N[C@H]1CC[C@H](n2nc(-c3ccc(C(=O)Nc4cc(C(F)(F)F)ccn4)cc3)c3c(N)ncnc32)CC1` had an IC50 of 100 to 1000 nM.

Molecule `Cc1ccnc(NC(=O)c2ccc(-c3nn([C@@H]4CCN(C(=O)/C=C/CNC5CC5)C4)c4ncnc(N)c34)cc2)c1` gave an IC50 of 100 to 1000 nM.

`CNC/C=C/C(=O)N1CC[C@@H](n2nc(-c3ccc(C(=O)Nc4cc(C)ccn4)cc3)c3c(N)ncnc32)C1` displayed a half-maximal inhibitory concentration (IC50) of 100 to 1000 nM.

Turning to `CN(C)C/C=C/C(=O)N1CC[C@@H](n2nc(-c3ccc(C(=O)Nc4ccccn4)cc3)c3c(N)ncnc32)C1`, the IC50 lay within 100 to 1000 nM.

The molecule `CC(C)c1ccnc(NC(=O)c2ccc(-c3nn([C@@H]4CCN(C(=O)/C=C/CN(C)C)C4)c4ncnc(N)c34)cc2)c1` displayed an IC50 of 100 to 1000 nM.

As for `Cc1ccnc(NC(=O)c2ccc(-c3nn([C@H]4CC[C@H](NC(=O)/C=C/CN(C)C)CC4)c4ncnc(N)c34)cc2)c1`, the half-inhibitory concentration (IC50) lay in the range of 100 to 1000 nM.

Values taken from the Kinase Knowledgebase extract (Sharma et al. 2016).
